The source of these data is patent US11932629B2, “KDM1A inhibitors for the treatment of disease” (Imago Biosciences, Inc., priority 2018, dated 2024).

Molecules are shown by their SMILES.

For this test, the target named is LSD1 (Homo sapiens, UniProt O60341). Briefly: LSD1 fluorescence coupling enzyme assay (HRP/Amplex Red), 10-dose IC50 mode. In kind it is biochemical. Conditions: 10-dose IC50 mode, 3-fold serial dilution in duplicate starting at 100 μM; 10 μM histone H3(1-21)K4me2 peptide substrate; read-out: RB LSD1 ave. The procedure: Compounds were tested in a 10-dose IC50 mode fluorescence coupling enzyme assay with 3-fold serial dilution in duplicate starting at 100 μM. The production of FAD-dependent H2O2 as a result of demethylase activity of LSD1 on 10 μM histone H3(1-21)K4me2 peptide substrate was measured by coupling with HRP and Amplex Red to yield resorufin (fluorescence measured at Ex/Em=535/590 nm on EnVision, Perkin Elmer).
As for `O=c1[nH]cc(CCCN[C@@H]2C[C@H]2c2ccc(F)cc2)nc1N1CCC1` [Example 5, 3-[Azetidin-1-yl]-5-[3-([(1R,2S)-2-(4-fluorophenyl)cyclopropyl]amino)propyl]-pyrazin-2(1H)-one], the IC50 was 12 nM.

`O=c1c(-c2cn[nH]c2)nc(CCCN[C@@H]2C[C@H]2c2ccc(F)cc2)cn1-c1ccc(F)cc1` [Example 36, 1-[4-fluorophenyl]-5-[3-([(1R,2S)-2-(4-fluorophenyl)cyclopropyl]amino)propyl]-3-[1H-pyrazol-4-yl]pyrazin-2(1H)-one]: the IC50 is 13 nM.

With `O=c1c(N2CCNCC2)nc(CCCN[C@@H]2C[C@H]2c2ccc(F)cc2)cn1-c1ccc(-n2ccnn2)cc1` [Example 27, 1-[4-(1H-1,2,3-triazol-1-yl)phenyl]-5-[3-([(1R,2S)-2-(4-fluorophenyl)-cyclopropyl]amino)propyl]-3-[piperazin-1-yl]pyrazin-2(1H)-one], the IC50 worked out at 17 nM.

With `O=c1[nH]cc(CCCN[C@@H]2C[C@H]2c2ccc(F)cc2)nc1N1CCNCC1` [Example 31, 5-[3-([(1R,2S)-2-(4-fluorophenyl)cyclopropyl]amino)propyl]-3-[piperazin-1-yl]pyrazin-2(1H)-one], the IC50 amounted to 4 nM.

Turning to `CN1CCN(c2nc(CCCN[C@@H]3C[C@H]3c3ccc(F)cc3)c[nH]c2=O)CC1` [Example 2, 5-[3-([(1R,2S)-2-(4-fluorophenyl)cyclopropyl]amino)propyl] 3-[4-methylpiperazin-1-yl]-pyrazin-2(1H)-one], the IC50 turned out to be 28 nM.

`O=C1CN(c2nc(CCCN[C@@H]3C[C@H]3c3ccc(F)cc3)c[nH]c2=O)CCN1` [Example 48, 5-[3-([(1R,2S)-2-(4-fluorophenyl)cyclopropyl]amino)propyl]-3-[3-oxopiperazin-1-yl]pyrazin-2(1H)-one]: the IC50 turned out to be 15 nM.

`O=c1c(N2CCS(=O)(=O)CC2)nc(CCCN[C@@H]2C[C@H]2c2ccc(F)cc2)cn1C1CC1` [Example 8, 1-Cyclopropyl-3-[1,1-dioxidothiomorpholino]-5-[3-([(1R,2S)-2-(4-fluorophenyl)cyclopropyl]amino)propyl]pyrazin-2(1H)-one]: the IC50 was 48 nM.

On to `O=c1c(N2CCNCC2)nc(CCCN[C@@H]2C[C@H]2c2ccc(F)cc2)cn1-c1ccc(F)cc1` [Example 26, 1-[4-Fluorophenyl]-5-[3-([(1R,2S)-2-(4-fluorophenyl)cyclopropyl]amino)propyl]-3-(piperazin-1-yl)pyrazin-2(1H)-one], for which the IC50 is 4 nM.

`CS(=O)(=O)N1CCN(c2nc(CCCN[C@@H]3C[C@H]3c3ccc(F)cc3)c[nH]c2=O)CC1` [Example 3, 5-[3-([(1R,2S)-2-(4-fluorophenyl)cyclopropyl]amino)propyl]-3-[4-(methylsulfonyl)piperazin-1-yl]pyrazin-2(1H)-one]: the IC50 came to 7 nM.

Take `N#Cc1ccc(-n2cc(CCCN[C@@H]3C[C@H]3c3ccc(F)cc3)nc(N3CC4(COC4)C3)c2=O)cc1` [Example 44, 4-[5-(3-[([1R,2S]-2-[4-fluorophenyl]cyclopropyl)amino]propyl)-2-oxo-3-(2-oxa-6-azaspiro[3.3]heptan-6-yl)pyrazin-1(2H)-yl]benzonitrile]: the IC50 was 6 nM.

On to `O=c1c(N2CCNCC2)nc(CCCN[C@@H]2C[C@H]2c2ccc(F)cc2)cn1-c1ccc(-c2ncccn2)cc1` [Example 28, 5-[3-([(1R,2S)-2-(4-fluorophenyl)cyclopropyl]amino)propyl]-3-[piperazin-1-yl]-1-[4-(pyrimidin-2-yl)phenyl]pyrazin-2(1H)-one], for which the IC50 came out at 6 nM.

As to `CN(C)S(=O)(=O)c1ccc(-n2cc(CCCN[C@@H]3C[C@H]3c3ccc(F)cc3)nc(N3CCNCC3)c2=O)cc1` [Example 14, 4-[5-(3-[([1R,2S]-2-[4-fluorophenyl]cyclopropyl)amino]propyl)-2-oxo-3-(piperazin-1-yl)pyrazin-1(2H)-yl]-N,N-dimethylbenzenesulfonamide], the IC50 came to 10 nM.

On to `O=C(O)C1CCN(c2nc(CCCN[C@@H]3C[C@H]3c3ccc(F)cc3)c[nH]c2=O)CC1` [Example 10, 1-[6-(3-[([1R,2S]-2-[4-fluorophenyl]cyclopropyl)amino]propyl)-3-oxo-3,4-dihydropyrazin-2-yl]piperidine-4-carboxylic acid], for which the IC50 was 300 nM.

Consider `O=c1[nH]cc(CCCN[C@@H]2C[C@H]2c2ccc(F)cc2)nc1N1CCOCC1` [Example 4, 5-[3-([(1R,2S)-2-(4-fluorophenyl)cyclopropyl]amino)propyl]-3-morpholinopyrazin-2(1H)-one], for which the IC50 turned out to be 7 nM.

In the case of `CN1CCN(c2nc(CCCN[C@@H]3C[C@H]3c3ccc(F)cc3)c[nH]c2=O)CC1=O` [Example 41, 5-[3-([(1R,2S)-2-(4-fluorophenyl)cyclopropyl]amino)propyl]-3-[4-methyl-3-oxopiperazin-1-yl]pyrazin-2(1H)-one], the IC50 amounted to 24 nM.

On to `O=c1c(N2CCNCC2)nc(CCCN[C@@H]2C[C@H]2c2ccc(F)cc2)cn1-c1ccc(-c2cccnn2)cc1` [Example 29, 5-[3-([(1R,2S)-2-(4-fluorophenyl)cyclopropyl]amino)propyl]-3-[piperazin-1-yl]-1-[4-(pyridazin-3-yl)phenyl]pyrazin-2(1H)-one], for which the IC50 came out at 2 nM.

With `CN(C)S(=O)(=O)c1ccc(-n2cc(CCCN[C@@H]3C[C@H]3c3ccc(F)cc3)nc(N3CCN(S(C)(=O)=O)CC3)c2=O)cc1` [Example 30, 4-[5-(3-[[(1R,2S)-2-(4-Fluorophenyl)cyclopropyl]amino]propyl)-3-(4-methanesulfonylpiperazin-1-yl)-2(1H)-oxopyrazin-1-yl]-N,N-dimethylbenzene-1-sulfonamide], the IC50 stood at 2 nM.

On to `O=c1[nH]cc(CCCN[C@@H]2C[C@H]2c2ccc(F)cc2)nc1N1CCS(=O)(=O)CC1` [Example 32, 3-[1,1-Dioxidothiomorpholino]-5-[3-([(1R,2S)-2-(4-fluorophenyl)cyclopropyl]amino)propyl]pyrazin-2(1H)-one], for which the IC50 turned out to be 9 nM.

Consider `O=C1CN(c2nc(CCCN[C@@H]3C[C@H]3c3ccc(F)cc3)cn(Cc3ccccc3)c2=O)CCN1` [Example 46, 1-benzyl-5-[3-([(1R,2S)-2-(4-fluorophenyl)cyclopropyl]amino)propyl]-3-[3-oxopiperazin-1-yl]pyrazin-2(1H)-one], for which the IC50 was 7 nM.

Turning to `O=c1[nH]cc(CCCN[C@@H]2C[C@H]2c2ccccc2)nc1N1CCS(=O)(=O)CC1` [Example 9, 3-(1,1-Dioxidothiomorpholino)-5-(3-(((1R,2S)-2-phenylcyclopropyl)amino)propyl)pyrazin-2(1H)-one], the IC50 came to 6 nM.
